The values below come from patent US20090226500A1, “SUTURES AND ANTI-SCARRING AGENTS” (Angiotech Pharmaceuticals, Inc, priority 2006, published 2009).

In one experiment the test system is human fibroblasts. The experiment can be described thus: Cell proliferation of fibroblasts. The experiment is classed as cell-based. Particulars: Fibroblast, 72 hours, CYQUANT, read-out: IC50 cell proliferation of fibroblasts. A digest of the protocol:
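Human fibroblasts plated at 600 cells/well, attached overnight, then exposed to drug in triplicate for 72 h at 37°C. Cell content read with CYQUANT GR dye in lysis buffer after 3-5 min at room temperature.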

The test system of experiment [1] is AP-1. In words: IL-1 stimulated AP-1 transcriptional activity (CAT reporter) in chondrocytes. The experiment is classed as cell-based. Particulars: 10^−7 to 10^−5 M.
For experiment [2], the system named is AP-1. The experiment can be described thus: IL-1 induced AP-1 DNA binding activity (gel mobility shift). The format is cell-based. Particulars: chondrocyte lysates, pretreated 10^−7 to 10^−5 M for 24 hours. The method, then:
Binding activity was assayed with a radiolabeled human AP-1 sequence probe and gel mobility shift assay. Extracts from chondrocytes untreated or treated with various amounts of paclitaxet (10^−7 to 10^−5 M) followed by IL-1β (20 ng/ml) were incubated with excess probe on ice for 30 minutes, followed by non-denaturing gel electrophoresis (FIG. 10B). The “com” lane contains excess unlabeled AP-1 oligonucleotide. The results shown are representative of three independent experiments.

A further experiment concerns collagenase (MMP-1). The experiment can be described thus: IL-1 induced collagenase (MMP-1) mRNA expression in chondrocytes. The format is cell-based, calf. The protocol: (§1) Cells were treated with paclitaxel at various concentrations (10^−7 to 10^−5 M) for 24 hours, then treated with IL-1β (20 ng/ml) for additional 18 hours in the presence of paclitaxel. Total RNA was isolated, and the MMP-1 mRNA levels were determined by Northern blot analysis. The blots were subsequently stripped and re-probed with ^32P-radiolabeled rat GAPDH cDNA, which was used as a housekeeping gene. The results shown are representative of four independent experiments (FIG. 10D). Quantitation of collagenase-1 and stromelysin-expression mRNA levels were conducted. The MMP-1 and MMP-3 expression levels were normalized with GAPDH.
Primary chondrocyte cultures were freshly isolated from calf cartilage. The cells were plated at 2.5×10^6 per ml in 100×20 mm culture dishes and incubated in Ham's F12 medium containing 5% FBS overnight at 37° C. The cells were starved in serum-free medium overnight and then treated with anti-microtubule agents at various concentrations for 6 hours. IL-1 (20 ng/ml) was then added to each plate and the plates incubated for an additional 18 hours. Total RNA was isolated by the acidified guanidine isothiocyanate method and subjected to electrophoresis on a denatured gel Denatured RNA samples (15 μg) were analyzed by gel electrophoresis in a 1% denatured gel, transferred to a nylon membrane and hydridized with the ^32P-labeled collagenase cDNA probe. ^32P-labeled glyceraldehyde phosphate […] (GAPDH) cDNA was used as an internal standard to ensure roughly equal loading. The exposed films were scanned and quantitatively analyzed with IMAGEQUANT.

For the next experiment, the system named is stromelysin (MMP-3). The experiment can be described thus: IL-1 induced stromelysin (MMP-3) mRNA expression in chondrocytes. The format is cell-based. The protocol:
as §1

Experiment [3] concerns Primary human smooth muscle cells. The experiment can be described thus: Smooth muscle cell migration. As to conditions: chemotaxis to rhPDGF-BB 10 ng/ml, 4 hours. The experiment is classed as cell-based. The method, then:
Primary human smooth muscle cells were starved of serum in smooth muscle cell basal media containing insulin and human basic fibroblast growth factor (bFGF) for 16 hours prior to the assay. For the migration assay, cells were trypsinized to remove cells from flasks, washed with migration media and diluted to a concentration of 2-2.5×10^5 cells/ml in migration media. Migration media consists of phenol red free Dulbecco's Modified Eagle Medium (DMEM) containing 0.35% human serum albumin. A 100 μL volume of smooth muscle cells (approximately 20,000-25,000 cells) was added to the top of a Boyden chamber assembly (Chemicon QCM CHEMOTAXIS 96-well migration plate). To the bottom wells, the chemotactic agent, recombinant human platelet derived growth factor (rhPDGF-BB) was added at a concentration of 10 ng/ml in a total volume of 150 μL. Paclitaxel was prepared in DMSO at a concentration of 10^−2 M and serially diluted 10-fold to give a range of stock concentrations (10^−8 M to 10^−2 M). […]
At the end of the 4-hour period, cells in the top chamber were discarded and the smooth muscle cells attached to the underside of the filter were detached for 30 minutes at 37° C. in Cell Detachment Solution (Chemicon). […] Fluorescence was read in a fluorescence microplate reader at ˜480 nm excitation wavelength and ˜520 nm emission maxima. […]

Another experiment concerns Smooth muscle cells. The experiment can be described thus: Proliferation of smooth muscle cells. The format is cell-based. As to conditions: 72 hours, CYQUANT; read-out: IC50 proliferation of smooth muscle cells. A digest of the protocol:
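Smooth muscle cells at 600 cells/well, exposed to paclitaxel (DMSO stocks 10^−8 to 10^−2 M) in triplicate for 72 h at 37 °C. Proliferation read with CyQUANT GR dye in lysis buffer.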

The subject of experiment [4] is murine RAW 264.7 macrophage cell line. The experiment can be described thus: Proliferation of murine RAW 264.7 macrophage cell line. The format is cell-based. As to conditions: Mus musculus, RAW264.7.
For experiment [5], the system named is CAM vasculature (angiogenesis). The experiment can be described thus: Chick chorioallantoic membrane (CAM) assay. Particulars: for Inhibition/n: 48 hours.

SMILES strings stand for the structures. “Also recorded” adds a separate entry of the source.

Turning to `CC(=O)O[C@H]1C(=O)[C@@]2(C)[C@H]([C@H](OC(=O)c3ccccc3)[C@]3(O)C[C@H](OC(=O)[C@H](O)[C@@H](NC(=O)c4ccccc4)c4ccccc4)C(C)=C1C3(C)C)[C@]1(OC(C)=O)CO[C@@H]1C[C@@H]2O` [paclitaxel, 5β,20-epoxy-1,2 alpha,4,7β,10β,13 alpha-hexahydroxytax-11-en-9-one-4,10-diacetate-2-benzoate-13-(alpha-phenylhippurate)], the IC50 with human fibroblasts was 10 to 100 nM; in experiment [3], 0.76 nM; with Smooth muscle cells, 7 nM; in [4], 134 nM. In addition, the “IL-1 induced AP-1 reporter gene CAT activity” value with AP-1 [1] is listed as “decreased CAT activity in a concentration dependent manner; also recorded: reduced”. For the same compound, the “IL-1 induced AP-1 binding activity” value in the experiment with AP-1 [2] is on record as “decreased”. For the same compound, the “IL-1 induced collagenase mRNA levels” value is “complete inhibition” with collagenase (MMP-1) (at 10^−5 M) and “significantly reduced; also recorded: inhibited” in the experiment with collagenase (MMP-1) (chondrocytes, pretreatment before IL-1). Also, the “concentration that inhibits IL-1-induced collagenase expression” value in the experiment on collagenase (MMP-1) (chondrocytes in vitro) was 10^−6 M. Further, the “IL-1 induced stromelysin mRNA levels” value is recorded as “complete inhibition” in the experiment on stromelysin (MMP-3) (at 10^−5 M) and “significantly reduced; also recorded: inhibited” in the experiment with stromelysin (MMP-3) (chondrocytes, pretreatment for 24 hours). Besides, in the experiment on stromelysin (MMP-3) (chondrocytes in vitro), the “concentration that inhibits stromelysin expression” value is 10^−6 M. The Inhibition/n in experiment [5] (0.25 μg in methylcellulose (10 μl)) is given as 2/11; in experiment [5] (0.5 μg in methylcellulose (10 μl)), 6/11; in experiment [5] (1 μg in methylcellulose (10 μl)), 6/15; in experiment [5] (5 μg in methylcellulose (10 μl)), 20/27; in [5] (10 μg in methylcellulose (10 μl)) it was 16/21; in experiment [5] (30 μg in methylcellulose (10 μl)), 31/31. For the same compound, in [5] (48 hours after application to the CAM), the angiogenesis result is “inhibited”. The avascular gradient scale in experiment [5] (maximal avascular zone within 48 hours, depending on concentration) worked out at 3.
